Test results from ChEMBL document CHEMBL5728170, “Substituted pyrrolizine compounds and uses thereof” (2020).
pEC50: −log10 of the molar value.

experiment: HBV DNA Quantification Assay: A HepG2 cell line overexpressing the HBV virus attachment receptor sodium-taurocholate cotransporting polypeptide (NTCP) was grown to confluency in DMEM growth medium, Dulbecco's Modified Eagle Medium without sodium pyruvate (Life Technologies, Rockville, Md.) supplemented with 10% FBS (Thermo Scientific, Waltham, Md.), 1% penicillin/streptomycin (Life Technologies, Rockville, Md.) and 2 mM L-glutamine (Life Technologies, Rockville, Md.) in T175 flasks. Cells were infected with HBV AD38 viral particles (Texcell, Frederick, USA) at 4000 genome equivalents per cell. After allowing viral infection to take place for 4 days, the infected cells were harvested from the flasks by trypsinization, washed twice with OptiMEM (Life Technologies, Rockville, Md.) and re-suspended in DMEM containing 2% FBS and 1% DMSO at a density of 0.25E6 cells/ml. Infected cells were seeded on 384 well collagen coated plates (Greiner, Austria) at a density of 20,000 cells/well containing serially diluted compounds of the present disclosure or DMSO (0.5%) in a final volume of 80 μl. The assay plates were incubated for a period of 5 days and the antiviral activity of the test compounds were assayed by detecting the presence of HBV DNA in the culture supernatant using the QuantiGene™ 2.0 nucleic acid quantification kit (Affymetrix, Santa Clara, Calif.).The culture supernatant was harvested and treated with lysis buffer containing Proteinase K (Affymetrix, Santa Clara, Calif.). The supernatant was incubated with HBV viral DNA specific probes (Affymetrix, Santa Clara, Calif.) for 30 minutes at 55° C. This was followed by addition of 0.2M NaOH for 30 minutes at room temperature to denature the DNA, followed by addition of Neutralization buffer (Affymetrix, Santa Clara, Calif.). The resulting lysed and neutralized supernatant was then added to QuantiGene™ 2.0 384 well plates coated with capture oligonucleotides and incubated overnight at 55° C. The HBV specific probe set consists of Capture Extender oligonucleotides (CE's) and blocking probes. Following the overnight incubation, the wells were incubated for one hour sequentially with a Pre-Amplifier, Amplifier and Labeled probes conjugated to alkaline phosphatase with a wash step between incubations. After the final wash step, the alkaline phosphatase substrate (Luminol APS5) was added and the resulting luminescence signal was read in an EnVision Multilabel Plate Reader (PerkinElmer, Santa Clara, Calif.). The EC50 values were calculated from the fit of the dose-response curves to a four-parameter equation.

Row | SMILES | pEC50
1 | CC(NC(=O)C(=O)c1c(Cl)c(C(=O)Nc2ccc(F)c(C#N)c2)n2c1CCC2)C(F)(F)F (centres undefined) | 7.57
2 | Cc1c(C(=O)C(=O)NC2(C(=O)N3CC4(C3)CN(S(C)(=O)=O)C4)CC(F)(F)C2)c2n(c1C(=O)Nc1ccc(F)c(C#N)c1)CCC2 | 6.95
3 | Cc1c(C(=O)C(=O)NC2(C(=O)N3CC4(COC4)C3)CC(F)(F)C2)c2n(c1C(=O)Nc1ccc(F)c(C#N)c1)CCC2 | 7.49
4 | CNC(=O)C1(NC(=O)C(=O)c2c(C)c(C(=O)OC)n3c2C[C@H]2C[C@H]23)CC(F)(F)C1 | 8.06
